“And” between values parts separate entries of the source, which are not always exact repeats. Identical values can stand only once.
How the values were obtained:
[1] = Crystallization by heat-cool DSC; format: physicochemical; conditions: for Thermal events: Melting Tonset / Thermal events: enthalpy: heated to 185° C.; for Thermal events: Delta Cp / Thermal events: Tg: reheated to 250° C.
Excerpt: Polymorphic behavior of Compound 1 Form A was investigated by two different heat-cool DSC cycles. A Tzero pan and a Tzero hermetic lid with a pin hole were used for this experiment. No new crystalline form was obtained by heat-cool DSC.

[2] = Stability study for Compound 1 Form B (storage conditions); format: physicochemical
[3] = Cycle 1 (cooling at 20° C./min)
[4] = 25° C. ± 2° C./60% RH ± 5% RH, 3 M
[5] = 25° C. ± 2° C./60% RH ± 5% RH, 6 M
[6] = 40° C. ± 2° C./75% RH ± 5% RH, 3 M
[7] = 40° C. ± 2° C./75% RH ± 5% RH, 6 M

With CCN(C)S(=O)(=O)Nc1ccc(F)c(Oc2ccc3ncn([C@H]4COC5(CCN(C(=O)CC6(O)CCN(c7cc8c(cc7F)c(N7CCC(=O)NC7=O)nn8C)CC6)CC5)C4)c(=O)c3c2)c1C#N [Compound 1 Form A] as the compound, how does the “Thermal events: Melting Tonset” value [1, 3] read?
The value was “Tonset 167.7° C., enthalpy about”.

And the “Thermal events: enthalpy” value [1, 3]?
The value was ~16 J/g.

And the “Thermal events: Delta Cp” value [1, 3]?
Its value is “Delta Cp 0.3 J(g. ° C.)”.

What about the “Thermal events: Tg” value [1, 3] of the same compound?
Its value is “Heated to 250° C.: Tg 149.8° C.,”.

What about the “Thermal events: Melting Tonset” value ([1]; Cycle 2 (cooling at 2° C./min)) of the same compound?
Its value is “Tonset 167.7° C., enthalpy about”.

And the “Thermal events: enthalpy” value ([1]; Cycle 2 (cooling at 2° C./min))?
The value was ~17 J/g.

What about the “Thermal events: Delta Cp” value ([1]; Cycle 2 (cooling at 2° C./min)) of the same compound?
Its value is “Delta Cp 0.2 J(g. ° C.)”.

And the “Thermal events: Tg” value ([1]; Cycle 2 (cooling at 2° C./min))?
The value was “Heated to 250° C.: Tg 145.9° C.,”.

For CCN(C)S(=O)(=O)Nc1ccc(F)c(Oc2ccc3ncn([C@H]4COC5(CCN(C(=O)CC6(O)CCN(c7cc8c(cc7F)c(N7CCC(=O)NC7=O)nn8C)CC6)CC5)C4)c(=O)c3c2)c1C#N [Compound 1 Form B], which Appearance ([2]; 5 ± 3° C., 6 M) is on record?
Its Appearance is “white solid”.

What about the “Assay by UPLC (% w/w)” value ([2]; 5 ± 3° C., 6 M) of the same compound?
The value was 97.7% w/w.

And the “Chiral purity by HPLC (% area)” value ([2]; 5 ± 3° C., 6 M)?
Its value is 99.9% area.

And the “Purity by UPLC (% area)” value ([2]; 5 ± 3° C., 6 M)?
The value was 99.0% area.

And the “Related Substances, UPLC (% area), Total Impurities” value (shortened to “Related Substances, UPLC (% area)”) ([2]; 5 ± 3° C., 6 M)?
Its value is 1.0% area.

What about the “Water Content by KF (% w/w)” value ([2]; 5 ± 3° C., 6 M) of the same compound?
Its value is 1.2% w/w.

What about the XRPD ([2]; 5 ± 3° C., 6 M) of the same compound?
The XRPD was “Form B”.

And the Water content trend ([2]; 5±3° C., 25° C./60% RH, 40° C./75% RH)?
The Water content trend was “increasing trend”.

And the “Stability study outcome (appearance, purity, assay, related substance, chiral purity, water content, XRPD)” value ([2]; 6M, 5±3° C., 25° C./60% RH, 40° C./75% RH)?
The value was “meet the acceptance criteria”.

What about the “Assay by UPLC (% w/w)” value [2, 4] of the same compound?
The value was 97.2% w/w.

What about the “Chiral purity by HPLC (% area)” value [2, 4] of the same compound?
The value was 99.9% area.

And the “Purity by UPLC (% area)” value [2, 4]?
The value was 98.9 % area.

What about the “Related Substances, UPLC (% area)” value [2, 4] of the same compound?
Its value is 1.1% area.

What about the “Water Content by KF (% w/w)” value [2, 4] of the same compound?
Its value is 0.7% w/w.

And the XRPD [2, 4]?
Its XRPD is “Form B”.

And the “Assay by UPLC (% w/w)” value [2, 5]?
Its value is 97.8% w/w.

And the “Chiral purity by HPLC (% area)” value [2, 5]?
The value was 99.9% area.

What about the “Purity by UPLC (% area)” value [2, 5] of the same compound?
The value was 99.1 % area.

What about the “Related Substances, UPLC (% area)” value [2, 5] of the same compound?
Its value is 0.90% area.

What about the “Water Content by KF (% w/w)” value [2, 5] of the same compound?
Its value is 0.9% w/w.

And the XRPD [2, 5]?
Its XRPD is “Form B”.

And the “Assay by UPLC (% w/w)” value [2, 6]?
Its value is 92.2% w/w.

And the “Chiral purity by HPLC (% area)” value [2, 6]?
The value was 99.9% area.

And the “Purity by UPLC (% area)” value [2, 6]?
Its value is 92.2% area.

What about the “Related Substances, UPLC (% area)” value [2, 6] of the same compound?
The value was 1.2% area.

What about the “Water Content by KF (% w/w)” value [2, 6] of the same compound?
The value was 0.9 % w/w.

And the XRPD [2, 6]?
Its XRPD is “Form B”.

What about the “Assay by UPLC (% w/w)” value [2, 7] of the same compound?
Its value is 92.5% w/w.

What about the “Chiral purity by HPLC (% area)” value [2, 7] of the same compound?
The value was 99.9% area.

And the “Purity by UPLC (% area)” value [2, 7]?
Its value is 92.5% area.

And the “Related Substances, UPLC (% area)” value [2, 7]?
The value was 1.1% area.

And the “Water Content by KF (% w/w)” value [2, 7]?
The value was 1.0 % w/w.

What about the XRPD [2, 7] of the same compound?
The XRPD was “Form B”.

What about the Appearance ([2]; Initial) of the same compound?
Its Appearance is “white solid”.

And the “Assay by UPLC (% w/w)” value ([2]; Initial)?
Its value is 99.4% w/w and 97.3% w/w.

And the “Chiral purity by HPLC (% area)” value ([2]; Initial)?
Its value is 99.8% area.

What about the “Purity by UPLC (% area)” value ([2]; Initial) of the same compound?
The value was 98.9% area and 97.3% area.

And the “Related Substances, UPLC (% area)” value ([2]; Initial)?
Its value is 1.1% area.

What about the “Water Content by KF (% w/w)” value ([2]; Initial) of the same compound?
Its value is 0.4% w/w.

What about the XRPD ([2]; Initial) of the same compound?
Its XRPD is “Form B”.

Reference: US20250289827A1, “MORPHIC FORMS OF A MUTANT BRAF DEGRADER AND METHODS OF MANUFACTURE THEREOF” (C4 THERAPEUTICS, INC., priority 2022, published 2025)
